Data taken from patent US20170100383A1, “TOPICAL FORMULATIONS FOR PREVENTING SKIN INFECTION” (Practical Solution, Inc., priority 2015, published 2017).
Where two headings read alike, the source gives them in different places.

How the values were obtained:
Type in all cases: cell-based
Conditions in all cases: 48 h
[1] = test system: Staphylococcus aureus ATCC6538; assay: Broth microdilution inhibitory rate (MIC assay) against Staphylococcus aureus
Protocol: (§1) Staphyloccocus aureus strain ATCC 6538, Bacillus subtilis ATCC9372 or Candida albicans ATCC10231 each (0.1 ml of a bacterial suspension having 10^8 cfu/ml bacteria) were inoculated into the mixture. […] Test tubes containing the mixtures were placed in a 37° C. incubator and incubated for 48 hours. The concentration of bacterial cells in each test tube was measured. The inhibitory rates were calculated as below:
(§2) [(Positive control average colony count−Test average colony count)/Positive control average colony count]×100%
(§3) Positive controls are the tubes having broth and microorganisms but no antimicrobial agents.

[2] = test system: Candida albicans ATCC10231; assay: Broth microdilution inhibitory rate (MIC assay) against Candida albicans
Protocol: as §1, §2, §3

[3] = test system: Bacillus subtilis ATCC9372
Protocol: as §1, §2, §3

[4] = dilution 1* of initial concentration (CHG 5 g/L, CPC 0.5 g/L), 37° C.
[5] = dilution 1/10 of initial concentration (CHG 5 g/L, CPC 0.5 g/L)
[6] = dilution 1/100 of initial concentration (CHG 5 g/L, CPC 0.5 g/L)
[7] = dilution 1/1000 of initial concentration (CHG 5 g/L, CPC 0.5 g/L)
[8] = dilution 1/2000 of initial concentration (CHG 5 g/L, CPC 0.5 g/L)
[9] = dilution 1/4000 of initial concentration (CHG 5 g/L, CPC 0.5 g/L)
[10] = dilution 1/8000 of initial concentration (CHG 5 g/L, CPC 0.5 g/L)

N=C(NCCCCCCNC(=N)NC(=N)Nc1ccc(Cl)cc1)NC(=N)Nc1ccc(Cl)cc1.O=C(O)[C@H](O)[C@@H](O)[C@H](O)[C@H](O)CO.O=C(O)[C@H](O)[C@@H](O)[C@H](O)[C@H](O)CO [CHG, chlorhexidine digluconate]
Anti-microbial activity (inhibitory rate) [1, 4]: 100%
Anti-microbial activity (inhibitory rate) [1, 5]: 100%
Anti-microbial activity (inhibitory rate) [1, 6]: 100%
Anti-microbial activity (inhibitory rate) [1, 7]: 100%
Anti-microbial activity (inhibitory rate) [1, 8]: 100%
Anti-microbial activity (inhibitory rate) [1, 9]: 100%
Anti-microbial activity (inhibitory rate) [1, 10]: 78.43%
Anti-microbial activity (inhibitory rate) [2, 4]: 100%
Anti-microbial activity (inhibitory rate) [2, 5]: 100%
Anti-microbial activity (inhibitory rate) [2, 6]: 100%
Anti-microbial activity (inhibitory rate) [2, 7]: 97.76%
Anti-microbial activity (inhibitory rate) [2, 8]: 93.92%
Anti-microbial activity (inhibitory rate) [2, 9]: 90.41%
Anti-microbial activity (inhibitory rate) [3, 4]: 100%
Anti-microbial activity (inhibitory rate) [3, 5]: 100%
Anti-microbial activity (inhibitory rate) [3, 6]: 100%
Anti-microbial activity (inhibitory rate) [3, 7]: 100%
Anti-microbial activity (inhibitory rate) [3, 8]: 100%
Anti-microbial activity (inhibitory rate) [3, 9]: 100%
Anti-microbial activity (inhibitory rate) [3, 10]: 99.99%
Anti-microbial activity (inhibitory rate) ([3]; dilution 1/16000 of initial concentration (CHG 5 g/L, CPC 0.5 g/L)): 99.50%
Anti-microbial activity (inhibitory rate) ([3]; dilution 1/32000 of initial concentration (CHG 5 g/L, CPC 0.5 g/L)): 90.83%
